The test system of this assay is Cancer cells. As to the kind of experiment: MTT assay-A positive control group. It is filed as cell-based. The note with it: Triton X100 1%, positive control C2. The protocol: MTT (3-(4,5 dimethylthiazole-2-yl)-2,5-diphenyl tetrazolium bromide) is a proven cell viability indicator and this yellow colored tetrazolium salt gets reduced to purple colored formazan crystals by mitochondrial reductase enzyme seen only in metabolically active cells. It measures the cell proliferation rate and the reduction in cell viability when metabolic events lead to apoptosis or necrosis. Triplicate samples were analyzed and cell viability was calculated in percentage with respect to negative control group as follows Cell viability (%)=(Nt/Nc)×100 Nt is the absorbance of cells treated with sample and Nc is the absorbance of untreated cells (negative control group-Cell culture medium alone). The cell survival rate of negative control group is 100%. The results of MTT assays are shown in Figures, Wherein, the horizontal axis represents concentration of test sample and the vertical axis represents the cell survival rate. […]
Cancer cells were incubated for 2 days. […] Optical density of the solution was measured at a wavelength of 570 nm using a Beckmann Coulter Elisa plate reader (BioTek Power Wave XS). […]
Background: Formazan colour is commonly taken as a measure of viable cells.

Take Triton X100: the cells killed result is reported as “more than 90%”.

The record behind these values is US9789153B2, “Composition for preventing cancer and treating cancer and intensifying the effects of other anticancer drugs” (priority 2014, dated 2017).
